Measurements from patent publication US10426755B2, “Methods for inhibiting cancer cells” (Chang Gung Memorial Hospital, Chiayi, priority 2015, dated 2019).
Entries after “also recorded” stand apart in the source; their conditions may differ.

Columns and labels:
Format in all cases: cell-based
[1] = test system: lung cancer cell lines (A549 and chemotherapy-resistant/metastatic H460); assay: XTT proliferation assay, lung cancer cells; conditions: 1-2 days, FIG. 2
Description: The prostate cancer cells were plated at a density of 10^3 or 3×10^3 per well, in a 96-well plate, in a medium containing 10% Fetal bovine serum (FBS) (Gibco®, commercially available from Life Technologies, USA). Once the prostate cancer cells were attached to the culture dish, the 10% FBS medium was replaced with a second 10% FBS medium and each of the prostate cancer cell line was treated with 1, 5, and 10 μM of DT respectively for 1-2 days. The absorbance was measured using XTT assay kit (commercially available from Roche, Switzerland) at 492 nm using an ELISA reader (Bio-Rad Laboratories, USA). An in vitro evaluation of the effect of DT, gemcitabine (a chemotherapeutic agent) and etoposide (a chemotherapeutic agent) on the lung cancer cells was performed. The lung cancer cell lines, chemotherapy-resistant/metastatic H460 lung cancer cells (with pleural metastasis) and A549 lung cancer cells, were purchased from Bioresource Collection and Research Center, Taiwan. […] The absorbance was measured using XTT assay kit at 492 nm using an ELISA reader.

[2] = test system: lung cancer cells (A549 and chemotherapy-resistant/metastatic H460); assay: Annexin V/PI flow cytometry apoptosis/necrosis, lung cancer cells; conditions: 10 or 20 μM DT, 24-48 hours, vs PBS and DMSO vehicle (CT); time dependent; FIG. 7
Description: The effect of DT on metastatic prostate cancer cells (hormone therapy-resistant PC3, DU145 and LNCaP); lung cancer cells (A549 and chemotherapy-resistant/metastatic H460); and breast cancer cells (MCF-7, tamoxifen-resistant MCF7 and MDA MB-231) was assessed.
1×10^6 Cancer cells were seeded in a 100-mm plate and cultured overnight. The cancer cells were treated with phosphate buffered saline (PBS), a Dimethyl sulfoxide (DMSO) vehicle (CT), 10 or 20 μM of DT for 24-48 hours, then collected and washed with cold PBS. The supernatant was removed by centrifugation and resuspended in FITC Annexin V binding buffer and Propidium iodide (PI) (Annexin V-FITC Apoptosis Detection Kit, commercially available from Strong Biotech Corporation, Taiwan). The suspended cancer cells were stained at room temperature, in the dark for 15 min and analyzed by the BD FACSCanto™ flow cytometry (Becton Dickinson, USA). The amount of early apoptosis, late apoptosis, and necrosis was measured as the percentage of annexin-V positive/PI negative (Q4 in the FACS images), annexin-V positive/PI positive (Q2 in the FACS images), and annexin-V negative/PI positive cells (Q1 in the FACS images), respectively. Normal cells are in […] of the FACS images.

[3] = test system: lung cancer cells (A549 and chemotherapy resistant/metastatic H460); assay: Cell migration (wound-healing) assay, lung cancer cells; conditions: DT vs control vehicle, 24 h, dose dependent; FIG. 11
Description: An in vitro evaluation of the effect of DT on lung cancer cells (A549 and chemotherapy resistant/metastatic H460), prostate cancer cells (metastatic DU145) and colorectal cancer cells (chemotherapy resistant HCT116) invasion and migration was performed, using cell invasion assay and cell migration assay.
Cell Migration Assay: In vitro wound-healing assay was used to assess cell motility in two dimensions. Cancer cells were plated overnight to achieve a subconfluent cell layer in 24-well plates. A scratch was made on the cell layer with a micropipette tip, and cultures were washed twice with serum-free medium to remove floating cells. Cancer cells were incubated in a culture medium containing DT or the control vehicle. Wound healing was visualized by comparing photographs taken at the time of adding the DT/control vehicle and 24 h later. Three experiments were done in quadruplicates.

CCL2 in THP1 monocytes = assay: CCL2 ELISA of culture medium, THP1 monocytes; conditions: 5 or 10 μM DT, 24 hours, vs DMSO, FIG. 14 (b)
Description: (§1) It has been reported that increased CCL2 expression enhances cancer cell metastasis via macrophage recruitment. The effect of DT on CCL2 expression in RAW264.7 macrophages, THP1 monocytes and prostate cancer cells (metastatic DU145 and hormone therapy resistant and metastatic PC3) was examined by treating the cells with DMSO (control), 5 or 10 μM DT for 24 hours.
(§2) The culture medium was collected and the concentration of CCL2 was measured using ELISA assay.

[4] = test system: CCL2 in hormone therapy resistant and metastatic PC3 prostate cancer cells; assay: CCL2 ELISA of culture medium, PC3; conditions: 5 or 10 μM DT, 24 hours, vs DMSO, FIG. 14 (d)
Description: as §1, §2

[5] = test system: prostate cancer cells (PC3, DU145 and 22RV1); assay: Prostate cancer cell invasion assay with DT-treated conditioned media; conditions: 5-10 μM DT, 24 hours, results not shown
Description: Cell Invasion Assay: cells of interest were treated with a control vehicle, 5 or 10 μM of DT and incubated for 3 days. 1×10^5 cells were placed into the upper chamber of transwell plates (8 μm) with membranes pre-coated with 20% Matrigel and the bottom chamber contained 600 μL media supplemented with 10% fetal bovine serum (FBS). The cells migrated to the bottom of the chamber were fixed, stained and counted.
As illustrated in Example 10, the production of CCL2 was inhibited by DT in both prostate cancer cells and macrophage, the effect of DT on monocyte/cancer cell co-culture and macrophage/cancer cell co-culture was examined using the invasion assay described in Example 9. • (a) THP1 monocytes, Raw264.7 macrophage, monocyte/prostate cancer co-culture and macrophage/prostate cancer co-culture were treated with a vehicle (DMSO), 5 or 10 μM DT for 24 hours, the cultured medium was collected and placed into the lower chamber of a transwell plate. • (b) Prostate cancer cells (PC3, DU145 and 22RV1) were placed in the cell invasion assay). The level of CCL2 in the invasion assay was measured by ELIZA method.

Cc1cccc2c3c(ccc12)C(=O)C1=C(OCC1C)C3=O (stereo not shown) [DT, dihydroisotanshinone I]
inhibition of lung cancer cells (proliferation) ([1]; 5, 10 and 20 μM DT, XTT): inhibits the lung cancer cells in a dose dependent fashion | inhibition of lung cancer proliferation, DT compared with gemcitabine and etoposide ([1]; DT 5, 10, 20 μM, gemcitabine hydrochloride and etoposide 10, 20 μM, regardless of the dosage, also H460): more effective than gemcitabine and etoposide in inhibiting lung cancer proliferation | early apoptosis, late apoptosis and necrosis, lung cancer cells [2]: more early apoptosis, late apoptosis and necrosis; also recorded: induced lung cancer cell apoptosis/necrosis | lung cancer cell migration into the wounded area [3]: reduced metastatic lung cancer cell migration; also recorded: reduced lung cancer cell migration into the wounded area | production of CCL2 in THP1 monocytes (CCL2 in THP1 monocytes): effectively inhibit the production of CCL2 | production of CCL2 in PC3 prostate cancer cells [4]: effectively inhibit the production of CCL2 | migration of prostate cancer cells ([5]; DT-treated macrophage medium): significantly inhibit the migration of prostate cancer cells in a dose-dependent manner | migration of prostate cancer cells ([5]; DT-treated macrophage/prostate cancer co-culture medium): significantly inhibit the migration of prostate cancer cells in a dose-dependent manner | migration of prostate cancer cells ([5]; DT-treated monocyte medium): significantly inhibit the migration of prostate cancer cells in a dose-dependent manner | migration of prostate cancer cells ([5]; DT-treated monocyte/prostate cancer co-culture medium): significantly inhibit the migration of prostate cancer cells in a dose-dependent manner
